From patent US11160793B2, “Solid dosage forms of bendamustine” (Astellas Deutschland GmbH, priority 2008, dated 2021)
Counter-ions that a name gives are not always drawn.

How the values were obtained:
[1] = B6D2F1-mice, absorption from the gastro-intestinal tract; cited from earlier work
[2] = 4.2-5.5 mg/kg, 7 patients, cited from earlier work
[3] = Stability of aqueous solution of bendamustine as a function of pH (hydrolysis); type: physicochemical

Compound | bio-availability [1] | mean oral bioavailability ([2]; 25 mg capsules vs intravenous) | time to maximal plasma levels after oral administration ([2]; 25 mg capsules) | pH above which significant hydrolytic decomposition is observed [3]
Cn1c(CCCC(=O)O)nc2cc(N(CCCl)CCCl)ccc21 [bendamustine hydrochloride] | about 40% | 57% | ≤ 1 h | –
Cn1c(CCCC(=O)O)nc2cc(N(CCCl)CCCl)ccc21 [bendamustine, 4-[5-[bis(2-chloroethyl)amino]-1-methylbenzimidazo-2-yl]butanoic acid] | – | – | – | higher than 5
